Data published in EPA's ToxRefDB 2.

How the values were obtained:
dog [1] = conditions: Subchronic oral toxicity in nonrodent, beagle, Capsule, dose end: 13 week, group: systemic
mouse [2] = conditions: Subchronic oral toxicity in rodents, cd1, Feed, dose end: 13 week, group: systemic
dog [3] = conditions: Chronic toxicity, beagle, Oral, Capsule, dose end: 52 week, group: systemic
mouse [4] = conditions: Carcinogenicity, cd1, Oral, Feed, dose end: 18 month, group: systemic
rat [5] = conditions: Multigenerational reproductive toxicity study, Other, Oral, Feed, dose end: 2 generation
rat [6] = conditions: Subchronic oral toxicity in rodents, fischer, Feed, dose end: 13 week, group: systemic, systemic / organ weight / adrenal gland / nos + systemic / organ weight / kidney / nos + systemic / organ weight / liver / nos + systemic / …
mouse [7] = conditions: Carcinogenicity, b6c3f1, Oral, Gavage/Intubation, dose end: 2 year, group: systemic
mouse [8] = conditions: Subchronic oral toxicity in rodents, b6c3f1, Gavage/Intubation, dose end: 13 week, group: systemic
rat [9] = conditions: Subchronic oral toxicity in rodents, fischer, Gavage/Intubation, dose end: 13 week, group: systemic
rat [10] = conditions: Carcinogenicity, fischer, Oral, Gavage/Intubation, dose end: 2 year, group: systemic
[11] = systemic / clinical chemistry / alkaline phosphatase (alp/alk) / alkaline phosphatase (alp/alk) + systemic / pathology gross / liver / …
[12] = systemic / organ weight / prostate / relative to body weight
[13] = systemic / pathology microscopic / liver / hypertrophy
[14] = systemic / pathology microscopic / liver / hypertrophy + systemic / clinical chemistry / alanine aminotransferase (alt/sgpt) / alanine …
[15] = systemic / pathology microscopic / liver / pigmentation + systemic / clinical chemistry / alkaline phosphatase (alp/alk) / alkaline …
[16] = systemic / organ weight / liver / relative to body weight
[17] = systemic / organ weight / liver / relative to body weight + systemic / organ weight / liver / absolute
[18] = group: offspring, systemic / in life observation / body weight / offspring (pup) weight + systemic / pathology gross / liver / discolored + systemic / …
[19] = group: parental, systemic / organ weight / liver / relative to body weight
[20] = group: parental, systemic / organ weight / liver / relative to body weight + systemic / in life observation / body weight / body weight + systemic / in life …
[21] = systemic / pathology microscopic / stomach / hyperplasia
[22] = systemic / pathology microscopic / stomach / papilloma + systemic / pathology microscopic / stomach / hyperplasia
[23] = systemic / in life observation / mortality / mortality + systemic / in life observation / body weight / body weight + systemic / pathology …
[24] = systemic / in life observation / mortality / mortality + systemic / pathology microscopic / brain / degeneration + systemic / pathology …
[25] = systemic / pathology microscopic / spleen / leukemia mononuclear
[26] = systemic / pathology microscopic / spleen / leukemia mononuclear + systemic / pathology microscopic / stomach / papilloma + systemic / …

CSC(=O)c1c(C(F)F)nc(C(F)(F)F)c(C(=O)SC)c1CC(C)C [Dithiopyr]
LOAEL (dog [1]; [11]): 10 mg/kg/day
NOAEL (dog [1]; [11]): 1 mg/kg/day
LEL (dog [1]; [12]): 1 mg/kg/day
NEL (dog [1]; [12]): < 1 mg/kg/day
LEL (mouse [2]; [13]): 11.8 mg/kg/day
LOAEL (mouse [2]; [13]): 11.8 mg/kg/day
NEL (mouse [2]; [14]): 1.16 mg/kg/day
NOAEL (mouse [2]; [14]): 1.16 mg/kg/day
LOAEL (dog [3]; systemic / pathology microscopic / liver / pigmentation): 5 mg/kg/day
LEL (dog [3]; [15]): 5 mg/kg/day
NEL (dog [3]; [15]): 0.5 mg/kg/day
NOAEL (dog [3]; [15]): 0.5 mg/kg/day
LEL (mouse [4]; [16]): 3.27 mg/kg/day
LOAEL (mouse [4]; [16]): 3.27 mg/kg/day
NEL (mouse [4]; [17]): 0.31 mg/kg/day
NOAEL (mouse [4]; [17]): 0.31 mg/kg/day
LEL (rat [5]; [18]): 19.9 mg/kg/day
LOAEL (rat [5]; [18]): > 218 mg/kg/day
NEL (rat [5]; [18]): 2 mg/kg/day
NOAEL (rat [5]; [18]): ≥ 218 mg/kg/day
LEL (rat [5]; [19]): 16.4 mg/kg/day
LOAEL (rat [5]; [19]): 16.4 mg/kg/day
NEL (rat [5]; [20]): 1.7 mg/kg/day
NOAEL (rat [5]; [20]): 1.7 mg/kg/day
LEL (rat [6]): 6.62 mg/kg/day
LOAEL (rat [6]): 6.62 mg/kg/day
NEL (rat [6]): 0.662 mg/kg/day
NOAEL (rat [6]): 0.662 mg/kg/day

O=Cc1ccccc1 [Benzaldehyde]
LOAEL (mouse [7]; [21]): > 400 mg/kg/day
NOAEL (mouse [7]; [21]): ≥ 400 mg/kg/day
LEL (mouse [7]; [22]): 300 mg/kg/day
NEL (mouse [7]; [22]): < 300 mg/kg/day
NEL (mouse [8]; systemic / in life observation / body weight / body weight + systemic / in life observation / mortality / mortality + systemic / pathology …): 300 mg/kg/day
LEL (mouse [8]; systemic / in life observation / body weight / body weight + systemic / pathology microscopic / kidney / degeneration): 600 mg/kg/day
LOAEL (mouse [8]; [23]): > 1200 mg/kg/day
NOAEL (mouse [8]; [23]): ≥ 1200 mg/kg/day
LEL (rat [9]; systemic / in life observation / mortality / mortality): 400 mg/kg/day
LOAEL (rat [9]; [24]): > 800 mg/kg/day
NEL (rat [9]; [24]): 200 mg/kg/day
NOAEL (rat [9]; [24]): ≥ 800 mg/kg/day
LEL (rat [10]; [25]): 200 mg/kg/day
NEL (rat [10]; [25]): < 200 mg/kg/day
LOAEL (rat [10]; [26]): > 400 mg/kg/day
NOAEL (rat [10]; [26]): ≥ 400 mg/kg/day
